Test [1] deals with T1, dopamine transporter (Canis lupus familiaris, UniProt A0A8I3S5A0).
T1 construct: digitonin-solubilized dopamine transporters from dog caudate nucleus; from tissue; host or cells: dog caudate nucleus, digitonin-solubilized extract
The note with it: cited from earlier work.

Test [2] addresses T2, NET (Homo sapiens, UniProt P23975).
T2 construct: expressed in transfected cells; host or cells: CAD cells (transient, co-transfected with HA-Ub)
Briefly: Ubiquitination of NET: IP with anti-HA (Ub), immunoblot with anti-NET, in transfected CAD cells. The class given is cell-based. The note with it: CAD cells transfected with NET and HA-Ub; 1 mM, pre-incubated 30 min at 37° C. before IP; vs vehicle. The procedure:
Prior to IP, cells were pre-incubated in media containing either vehicle (control), 1 mM PMA, or 1 mM methacholine (meth) for 30 min. PMA and methacholine increased ubiquitination of NET.
(§1) Acute regulation of NET ubiquitination by PMA and methacholine (meth) was assessed. […] One mM PMA and 1 mM meth both increased ubiquitination of NET (FIG. 3). Chronic regulation of ubiquitination of NET was assessed in CAD cells transfected with NET and HA-Ub. […] FIGS. 5A-5B.

For test [3], the system named is CAD cells. The test can be described thus: Ponceau-S staining of the total membrane (other cellular proteins). The note with it: desipramine treatment for 3 days.
Test [4] deals with hNET. The test can be described thus: NE transport assay in CAD-his-hNET cells. The class given is cell-based, human. Details: dose or concentration left out as unconfirmed. Conditions: incubated 0, 1, 4 and 24 hrs prior to NE transport assay; triplicates. The procedure:
FIG. 5A—Inhibition of proteasomes influence NET transport in cells. CAD-his-hNET cells in 24 well plates were incubated in MG132 ([…]) for 0, 1, 4 and 24 hrs prior to NE transport assay in triplicates.
Transport Assay. CAD-his-hNET cells in 24 well plates were incubated in MG132 ([…]) for 0, 1, 4 and 24 hrs prior to NE transport assay in triplicates. Protein Assay. CAD cells transfected with NET and Ub were preincubated with MG132 for 4 hrs prior to cell lysis and immunoblot with anti-NET for protein analysis.

Test [5] concerns the target T2, NET. Briefly: NET proteins (total) by immunoblot with anti-NET in transfected CAD cells. Type of test: cell-based. The arrangement: dose or concentration left out as unconfirmed. The note with it: CAD cells transfected with NET and Ub; preincubated 4 hrs prior to lysis. The procedure: as §1
The mark [6] stands for this setting: digitonin-solubilized extract of dog caudate.

Residues, ends and D or L forms follow the SMILES beside them. *: point of attachment. Cbz = O=C(OCc1ccccc1)*

T1 sequence (A0A8I3S5A0 1-617): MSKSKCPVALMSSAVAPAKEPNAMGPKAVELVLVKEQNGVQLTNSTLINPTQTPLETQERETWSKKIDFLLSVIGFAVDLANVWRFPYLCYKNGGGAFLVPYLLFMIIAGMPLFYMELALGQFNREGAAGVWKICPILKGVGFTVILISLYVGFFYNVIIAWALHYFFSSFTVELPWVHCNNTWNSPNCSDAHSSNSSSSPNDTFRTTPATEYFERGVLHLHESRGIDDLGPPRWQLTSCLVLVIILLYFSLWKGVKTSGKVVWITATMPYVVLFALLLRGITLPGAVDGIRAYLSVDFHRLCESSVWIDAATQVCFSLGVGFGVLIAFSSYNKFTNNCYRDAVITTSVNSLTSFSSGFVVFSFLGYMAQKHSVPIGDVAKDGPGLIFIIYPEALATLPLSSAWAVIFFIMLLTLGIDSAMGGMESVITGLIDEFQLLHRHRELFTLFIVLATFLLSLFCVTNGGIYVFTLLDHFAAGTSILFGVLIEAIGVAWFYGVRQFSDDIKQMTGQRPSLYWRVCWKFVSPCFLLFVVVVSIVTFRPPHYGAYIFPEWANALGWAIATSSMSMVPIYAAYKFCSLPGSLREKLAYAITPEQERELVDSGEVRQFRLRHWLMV
T2 sequence (P23975 whole entry): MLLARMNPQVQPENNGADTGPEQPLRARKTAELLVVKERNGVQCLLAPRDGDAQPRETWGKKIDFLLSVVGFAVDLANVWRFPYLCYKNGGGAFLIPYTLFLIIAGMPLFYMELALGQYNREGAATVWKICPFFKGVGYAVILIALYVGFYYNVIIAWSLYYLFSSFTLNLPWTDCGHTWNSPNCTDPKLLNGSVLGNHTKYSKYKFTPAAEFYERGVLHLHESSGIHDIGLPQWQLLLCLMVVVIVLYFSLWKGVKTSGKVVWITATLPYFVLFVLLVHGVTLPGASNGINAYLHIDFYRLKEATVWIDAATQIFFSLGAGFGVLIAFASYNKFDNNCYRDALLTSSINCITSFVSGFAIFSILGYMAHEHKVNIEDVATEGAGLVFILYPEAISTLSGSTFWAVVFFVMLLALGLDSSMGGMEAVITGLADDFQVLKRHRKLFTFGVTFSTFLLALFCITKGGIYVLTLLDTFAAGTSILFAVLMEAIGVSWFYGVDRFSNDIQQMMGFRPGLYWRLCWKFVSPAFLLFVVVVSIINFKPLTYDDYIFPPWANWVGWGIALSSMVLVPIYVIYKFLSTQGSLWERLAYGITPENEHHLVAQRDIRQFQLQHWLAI

`OC1(c2ccc(Cl)cc2)c2ccccc2C2=NCCN21` (stereo not shown) [mazindol]: in test [1] (setting [6]), the “inhibition of soluble [3H]WIN 35,428 binding (competition studies)” value (from here on “inhibition of soluble”) is on record as “strongly”. `COC(=O)C1C(OC(=O)c2ccccc2)CC2CCC1N2C` (single isomer, unassigned; (+)) [(+)-cocaine]: in test [1] (setting [6]), the “inhibition of soluble” value was “weakly”. As for (−)-cocaine, the “potency compared to assays using [3H]GBR 12935” value in test [1] (competition against [3H]WIN 35,428) is reported as “relatively more potent”.

As for `CC(=O)OC(C)C[N+](C)(C)C` (stereo not shown) [meth, methacholine], in test [2], the “ubiquitination of NET (acute regulation)” value was “increased”. Consider `COC(=O)[C@H]1[C@@H](c2ccc(F)cc2)C[C@@H]2CC[C@H]1N2C` [[^3H]WIN 35,428], for which the Kd in test [1] (digitonin-solubilized extract of dog caudate, read-out: Kd of binding) was 16 nM.

Regarding `CCCCCCCCCCCCCC(=O)O[C@@H]1[C@@H](C)[C@@]2(O)[C@@H](C=C(CO)C[C@]3(O)C(=O)C(C)=C[C@@H]23)[C@@H]2C(C)(C)[C@]12OC(C)=O` [PMA], in test [2], the “ubiquitination of NET (acute regulation)” value is recorded as “increased”. Consider `CNCCCN1c2ccccc2CCc2ccccc21` [Desipramine, desipramine], for which, in test [3], the “amounts of other cellular proteins (Ponceau-S stain of total membrane)” value is given as “no change”. Also, the “inhibition of soluble” value in test [1] (setting [6]) is given as “weakly”. As to `CC(C)C[C@@H](C=O)NC(=O)[C@H](CC(C)C)NC(=O)[C@H](CC(C)C)NC(=O)OCc1ccccc1` [MG132] (Cbz-Leu-Leu-Leu-aldehyde), in test [4], the NET transport result is on record as “increase”. Also, in test [5], the NET protein concentration result is on record as “increase”.

Source of the values: US20070199084A1, “Ubiquitination of Membrane Transporters” (VANDERBILT UNIVERSITY, priority 2005, published 2007).
